Measurements reported in US4520022A, “Substituted vinyl cephalosporins” (priority 1983, dated 1985).
In brackets after ≈: the same amount, converted by molar mass. Like-named read-outs stand apart in the source and are kept apart here.

Tests used:
S. aureus Smith = test: Protective dose, mice infected with lethal inoculum, oral treatment, S. aureus Smith; format: in vivo; conditions: Staphylococcus aureus, po, 120 h, oral, read-out: Protective dose (PD50), S. aureus Smith
E. coli Juhl = test: Protective dose, mice infected with lethal inoculum, oral treatment, E. coli Juhl; format: in vivo
S. aureus BX-1633 = test: Protective dose PD50, mice infected with lethal inoculum, oral treatment, S. aureus BX-1633; format: in vivo; conditions: Staphylococcus aureus, BX1633, 120 h
S. pyogenes A20201 = test: Protective dose PD50, mice infected with lethal inoculum, oral treatment, S. pyogenes A20201; format: in vivo; conditions: Streptococcus pyogenes, 120 h
H. influenza A9729 = test: Protective dose PD50, mice infected with lethal inoculum, oral treatment, H. influenza A9729; format: in vivo; conditions: Mus musculus, 120 h
Source text: The structure activity correlations drawn from the foregoing in vitro studies are born out by the results of in vivo studies in mice. Table 4 is a tabulation of the protective doses for mice infected with a lethal inoculum of a bacteria. Two different bacteria were employed in the studies, one a Gram+ organism and the other a Gram- organism. The protective dose (PD50) is that dose which when administered to a group of infected mice results in 50% survival after five days. Normally untreated infected mice die within three days following injection of the lethal inoculum.
Protective Dose PD50 for Mice Infected with Lethal Inoculum

P. mirabilis A9554 = test: Protective dose PD50, mice infected with lethal inoculum, oral treatment, P. mirabilis A9554; format: in vivo
S. pyogenes = test: In vitro activity against Streptococci (MIC), S. pyogenes; format: cell-based; conditions: Streptococcus pyogenes, Compound 9 lot 2
S. pneumoniae = test: In vitro activity against Streptococci (MIC), S. pneumoniae; format: cell-based; conditions: Streptococcus pneumoniae, Compound 9 lot 2
N. gonorrheae = test: In vitro activity against Neisseria (MIC), N. gonorrheae; format: cell-based
N. meningitidis = test: In vitro activity against Neisseria (MIC), N. meningitidis; format: cell-based
H. influenzae = test: In vitro activity against Haemophilis (MIC), H. influenzae; format: cell-based; conditions: Haemophilus influenzae, Compound 9 lot 2
B. fragilis = test: In vitro activity against anaerobes (MIC), B. fragilis; format: cell-based; conditions: Bacteroides fragilis
C. perfringens A9645 = test: microbe, parasite or virus in culture; format: cell-based; conditions: Clostridium perfringens
P. acnes A21933 = test: In vitro activity against anaerobes (MIC), P. acnes; format: cell-based; conditions: Cutibacterium acnes; Gp cocci; P. acnes A21933; read-out: MIC
P. anaerobius A21905 = test: In vitro activity against anaerobes (MIC), P. anaerobius; format: cell-based; conditions: Peptostreptococcus anaerobius; Gp cocci; P. anaerobius A21905; read-out: MIC
Gp, rods; Gp, cocci = test: microbe, parasite or virus in culture; format: cell-based, C. difficile; C. perfringens; P. acnes; P. anaerobius; conditions: read-out: MIC, Geometric Mean
[1] = mouse, in vivo
in vivo = conditions: mouse; for half-life: T1/2
[2] = system: Gp Ia, Gp Ib, Gn Ia organisms of Table 2; test: Test medium comparison, agar dilution MIC, Mueller-Hinton agar versus nutrient agar
[3] = system: Gp Ib: S. aureus 193, BX-1633-2 A9606, A15092, Russell, A9602; conditions: Staphylococcus aureus
[4] = system: Gp Ia: S. aureus Smith A9537, A9497, Terajima, A9534, A9601; conditions: Staphylococcus aureus

C/C=C\C1=C(C(=O)O)N2C(=O)[C@@H](NC(=O)[C@H](N)c3ccc(O)cc3)[C@H]2SC1 [Compound 9, 7β-[D-2-amino-(p-hydroxyphenyl)acetamido]-3-[(Z)-1-propen-1-yl]-3-cephem-4-carboxylic Acid]
ED50 (S. aureus Smith; 50% survival for 5 days, groups of 5 mice): 0.14 mg/kg
ED50 (S. aureus Smith; separate run of Compound 42 and BMY28100, cephalexin/cefadroxil controls not available): 0.16 mg/kg
ED50 (E. coli Juhl; Escherichia coli, po, 120 h, oral, 50% survival for 5 days, groups of 5 mice, read-out: Protective dose (PD50), E. coli Juhl): 1.2 mg/kg
activity against the Gram- infection (E. coli Juhl; in words): more active against the Gram- infection
ED50 (S. aureus BX-1633): 2.2 mg/kg
ED50 (S. pyogenes A20201): 0.11 mg/kg
ED50 (H. influenza A9729): 1.8 mg/kg
Protective Dose PD50 (P. mirabilis A9554): 1.8
MIC (S. pyogenes; S. pyogenes A9604, read-out: MIC): 0.05 µg/mL (≈ 0.128 µM)
MIC (S. pyogenes; S. pyogenes A15040, read-out: MIC): 0.05 µg/mL (≈ 0.128 µM)
MIC (S. pyogenes; S. pyogenes A20065, read-out: MIC): 0.05 µg/mL (≈ 0.128 µM)
MIC (S. pyogenes; S. pyogenes A20201, read-out: MIC): 0.1 µg/mL (≈ 0.257 µM)
MIC (S. pyogenes; S. pyogenes Dick, read-out: MIC): 0.05 µg/mL (≈ 0.128 µM)
MIC (S. pyogenes; S. pyogenes S-23, Dick, A9604, A20065, A15040, read-out: MIC, Geometric Mean): 0.05 µg/mL (≈ 0.128 µM)
MIC (S. pyogenes; S. pyogenes S-23, read-out: MIC): 0.05 µg/mL (≈ 0.128 µM)
MIC (S. pneumoniae; S. pneumoniae A9585, read-out: MIC): 0.2 µg/mL (≈ 0.514 µM)
MIC (S. pneumoniae; S. pneumoniae A15069, read-out: MIC): 0.2 µg/mL (≈ 0.514 µM)
MIC (S. pneumoniae; S. pneumoniae A20759, read-out: MIC): 0.2 µg/mL (≈ 0.514 µM)
MIC (S. pneumoniae; S. pneumoniae Type I, read-out: MIC): 0.2 µg/mL (≈ 0.514 µM)
MIC (S. pneumoniae; S. pneumoniae Type II, I, III, A9585, A15069, read-out: MIC, Geometric Mean): 0.2 µg/mL (≈ 0.514 µM)
MIC (S. pneumoniae; S. pneumoniae Type II, read-out: MIC): 0.2 µg/mL (≈ 0.514 µM)
MIC (S. pneumoniae; S. pneumoniae Type III, read-out: MIC): 0.2 µg/mL (≈ 0.514 µM)
MIC (N. gonorrheae; N. gonorrheae A20142, Compound 9 lot 2): 0.8 µg/mL (≈ 2.05 µM)
MIC (N. gonorrheae; N. gonorrheae A20143, Compound 9 lot 2): 0.8 µg/mL (≈ 2.05 µM)
MIC (N. gonorrheae; N. gonorrheae A20154, Compound 9 lot 2): 0.8 µg/mL (≈ 2.05 µM)
MIC (N. gonorrheae; N. gonorrheae A20155, Compound 9 lot 2): 0.8 µg/mL (≈ 2.05 µM)
MIC (N. gonorrheae; read-out: MIC): 0.8 µg/mL (≈ 2.05 µM)
MIC (N. gonorrheae; read-out: MIC, Geometric Mean): 0.8 µg/mL (≈ 2.05 µM)
MIC (N. meningitidis; N. meningitidis A21487, Compound 9 lot 2): 0.8 µg/mL (≈ 2.05 µM)
MIC (N. meningitidis; N. meningitidis A21496, Compound 9 lot 2): 0.8 µg/mL (≈ 2.05 µM)
MIC (N. meningitidis; N. meningitidis A21497, Compound 9 lot 2): 0.8 µg/mL (≈ 2.05 µM)
MIC (N. meningitidis; Neisseria meningitidis, read-out: MIC): 0.8 µg/mL (≈ 2.05 µM)
MIC (N. meningitidis; Neisseria meningitidis, read-out: MIC, Geometric Mean): 0.8 µg/mL (≈ 2.05 µM)
MIC (H. influenzae; H. influenzae A9729, read-out: MIC): 0.8 µg/mL (≈ 2.05 µM)
MIC (H. influenzae; H. influenzae A9833, read-out: MIC): 0.8 µg/mL (≈ 2.05 µM)
MIC (H. influenzae; H. influenzae A20177, read-out: MIC): 0.8 µg/mL (≈ 2.05 µM)
MIC (H. influenzae; H. influenzae A20193, read-out: MIC): 0.8 µg/mL (≈ 2.05 µM)
MIC (H. influenzae; H. influenzae A21523, read-out: MIC): 0.8 µg/mL (≈ 2.05 µM)
MIC (H. influenzae; H. influenzae A22482, read-out: MIC): 0.8 µg/mL (≈ 2.05 µM)
MIC (H. influenzae; H. influenzae A22483, read-out: MIC): 0.8 µg/mL (≈ 2.05 µM)
MIC (H. influenzae; H. influenzae, seven strains above, read-out: MIC, Geometric Mean): 0.8 µg/mL (≈ 2.05 µM)
MIC (B. fragilis; B. fragilis A20928-1, A21900, A20935, β-lactamase (-), read-out: MIC, Geometric Mean): 3.2 µg/mL (≈ 8.22 µM)
MIC (B. fragilis; B. fragilis A20928-1, β-lactamase (-), read-out: MIC): 0.8 µg/mL (≈ 2.05 µM)
MIC (B. fragilis; B. fragilis A20935, β-lactamase (-), read-out: MIC): 0.8 µg/mL (≈ 2.05 µM)
MIC (B. fragilis; B. fragilis A21900, β-lactamase (-), clindamycin resistant, read-out: MIC): 50 µg/mL (≈ 128 µM)
MIC (B. fragilis; B. fragilis A22021, β-lactamase (+), read-out: MIC): > 100 µg/mL
MIC (B. fragilis; B. fragilis A22053, A22021, A22693, β-lactamase (+), read-out: MIC, Geometric Mean): > 100 µg/mL
MIC (B. fragilis; B. fragilis A22053, β-lactamase (+), read-out: MIC): 50 µg/mL (≈ 128 µM)
MIC (B. fragilis; B. fragilis A22533, β-lactamase (+), read-out: MIC): > 100 µg/mL
MIC (B. fragilis; B. fragilis A22693, β-lactamase (+), read-out: MIC): > 100 µg/mL
MIC (B. fragilis; B. fragilis A22695, A22533, β-lactamase (+), read-out: MIC, Geometric Mean): > 100 µg/mL
MIC (B. fragilis; B. fragilis A22695, β-lactamase (+), read-out: MIC): > 100 µg/mL
MIC (C. perfringens A9645): 0.4 µg/mL (≈ 1.03 µM)
MIC (P. acnes A21933): 0.4 µg/mL (≈ 1.03 µM)
MIC (P. anaerobius A21905): 0.8 µg/mL (≈ 2.05 µM)
MIC (Gp, rods; Gp, cocci): 0.95 µg/mL (≈ 2.44 µM)
T1/2 ([1]; im, 20 mg/kg): 0.48
T1/2 ([1]; po, 20 mg/kg): 1.7
T1/2 ([1]; po, 100 mg/kg): 1.3 h
Cmax (in vivo; im, 20 mg/kg): 28000 ng/mL
half-life (in vivo; im, 20 mg/kg): 0.88 h
AUC (in vivo; po, 20 mg/kg, AUC*): 26000 ng·h/mL
Cmax (in vivo; po, 20 mg/kg): 15000 ng/mL
half-life (in vivo; po, 20 mg/kg): 1.9 h
AUC (in vivo; po, 100 mg/kg, AUC): 106000 ng·h/mL
Cmax (in vivo; po, 100 mg/kg): 56000 ng/mL
half-life (in vivo; po, 100 mg/kg): 1.9 h
difference in MIC between the two media [2]: less than three fold
MIC ([3]; read-out: Minimum Inhibitory Concentration Gp Ib, Mueller-Hinton agar, run 1, average of five organisms): 0.92 µg/mL (≈ 2.36 µM)
MIC ([3]; read-out: Minimum Inhibitory Concentration Gp Ib, Mueller-Hinton agar, run 2, average of five organisms): 0.8 µg/mL (≈ 2.05 µM)
MIC ([3]; read-out: Minimum inhibitory Concentration Gp Ib, Test Medium Comparison, A: Mueller-Hinton agar, average values): 0.92 µg/mL (≈ 2.36 µM)
MIC ([3]; read-out: Minimum inhibitory Concentration Gp Ib, Test Medium Comparison, B: Nutrient agar, average values): 0.35 µg/mL (≈ 0.899 µM)
MIC ([4]; read-out: Minimum Inhibitory Concentration Gp Ia, Mueller-Hinton agar, run 1, average of five organisms): 0.23 µg/mL (≈ 0.591 µM)
MIC ([4]; read-out: Minimum Inhibitory Concentration Gp Ia, Mueller-Hinton agar, run 2, average of five organisms): 0.35 µg/mL (≈ 0.899 µM)
MIC ([4]; read-out: Minimum inhibitory Concentration Gp Ia, Test Medium Comparison, A: Mueller-Hinton agar, average values): 0.23 µg/mL (≈ 0.591 µM)
MIC ([4]; read-out: Minimum inhibitory Concentration Gp Ia, Test Medium Comparison, B: Nutrient agar, average values): 0.17 µg/mL (≈ 0.437 µM)
